The text below walks through data of patent US8735417B2, “Aminopyrimidines as Syk inhibitors” (Merck Sharp & Dohme Corp., priority 2009, dated 2014).

Where only a bound is given, the exact number is not on record here.

The target of the first series is T1, recombinant human GST-SYK (Homo sapiens, UniProt P43405).
T1 construct: purchased Carna Biosciences 08-176
As to the kind of experiment: Homogeneous Time-Resolved Fluorescence (HTRF) assay for the recombinant human SYK enzyme. Type of series: biochemical. The following applies: recombinant human GST-SYK 5 pM, ATP 25 μM, 10-dose titration; read-out: rhSYK Activity (IC50). Summed up:
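GST-hSYK (5 pM) preincubated 10 min at room temperature with inhibitor (0.1% DMSO) in Tris pH 7.5 buffer; reaction started with 250 nM biotinylated peptide, 5 mM Mg and 25 μM ATP, 45 min. EDTA quench with Eu-anti-phosphotyrosine antibody and SA-APC; HTRF read after 30 min.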
Turning to `C[C@@H](Nc1ncc(-c2cccc(Nc3nccc(C(F)(F)F)n3)c2)s1)C1CCCCC1` [Example 65], the IC50 was 1000 to 10000 nM.
With `Cc1cc(Nc2nccc(C(F)(F)F)n2)cc(-c2cnc(NCc3cn(C)cn3)s2)c1` [Example 94], the IC50 was no more than 100 nM.
As for `Cc1cc(Nc2nccc(C(F)(F)F)n2)cc(-c2cnc(NCCc3cccs3)s2)c1` [Example 108], the IC50 was in the range of 100 to 1000 nM.
As for `Cc1cc(Nc2nccc(C#N)n2)cc(-c2cnc(N3CCCNC(=O)C3)s2)c1` [Example 204], the IC50 was no more than 100 nM.
Same read-out and setting: for `N[C@H]1CCN(c2ncc(-c3cccc(Nc4nccc(C(F)(F)F)n4)c3)s2)C1` [Example 163] the value was no more than 100 nM.
As to `OCCNc1ncc(-c2cccc(Nc3nccc(C(F)(F)F)n3)c2)s1` [Example 2], the IC50 was no more than 100 nM.
Take `OC(CNc1ncc(-c2cccc(Nc3nccc(C(F)(F)F)n3)c2)s1)C(F)F` (centres unmarked) [Example 13]: the IC50 was no more than 100 nM.
With `Cc1cc(Nc2nccc(SC(C)C)n2)cc(-c2cnc(N3CCCNC(=O)C3)s2)c1` [Example 219], the IC50 is no more than 100 nM.
In the case of `Cc1cc(Nc2nccc(C(F)(F)F)n2)cc(-c2cnc(NCCc3c[nH]c4ccccc34)s2)c1` [Example 112], the IC50 is no more than 100 nM.
As to `C=Cc1ccnc(Nc2cc(C)cc(-c3cnc(N4CCCNC(=O)C4)s3)c2)n1` [Example 199, 4-(5-{3-[(4-ethenylpyrimidin-2-yl)amino]-5-methylphenyl}-1,3-thiazol-2-yl)-1,4-diazepan-2-one], the IC50 is no more than 100 nM.
As to `COc1ccnc(Nc2cc(C)cc(-c3sc(N4CCCNC(=O)C4)nc3Cl)c2)n1` [Example 227, 4-(4-chloro-5-{3-[(4-methoxypyrimidin-2-yl)amino]-5-methylphenyl}-1,3-thiazol-2-yl)-1,4-diazepan-2-one], the IC50 is no more than 100 nM.
The same measure, in the same setting: for `Cc1cc(Nc2nccc(C3CCC3)n2)cc(-c2cnc(N3CCCNC(=O)C3)s2)c1` [Example 195] the value was no more than 100 nM; for `Cc1cc(Nc2nccc(C3CCCC3)n2)cc(-c2cnc(N3CCCNC(=O)C3)s2)c1` [Example 197, 4-(5-{3-[(4-cyclopentylpyrimidin-2-yl)amino]-5-methylphenyl}-1,3-thiazol-2-yl)-1,4-diazepan-2-one], no more than 100 nM.
Regarding `Cc1cc(Nc2ncc(F)cn2)cc(-c2cnc(N3CCCNC(=O)C3)s2)c1` [Example 201], the IC50 was no more than 100 nM.
On to `Cc1ccnc(Nc2cccc(-c3csc(N4CCC(C(N)=O)CC4)n3)c2)n1` [Example 232], for which the IC50 lay within 100 to 1000 nM.
With `OC1(CCNc2ncc(-c3cccc(Nc4nccc(C(F)(F)F)n4)c3)s2)CCCC1` [Example 17], the 50% inhibitory concentration (IC50) was no more than 100 nM.
On to `CC(=O)Nc1cc(Nc2nccc(C(F)(F)F)n2)cc(-c2cnc(N3CCCNC(=O)C3)s2)c1` [Example 184, N-(3-[2-(3-oxo-1,4-diazepan-1-yl)-1,3-thiazol-5-yl]-5-{[4-(trifluoromethyl)pyrimidin-2-yl]amino}phenyl)acetamide], for which the IC50 was no more than 100 nM.
Regarding `FC(F)(F)c1ccnc(Nc2cccc(-c3cnc(N4CCCNCC4)s3)c2)n1` [Example 167], the IC50 is no more than 100 nM.
Take `O=C(O)C1CCN(c2nc(-c3cccc(Nc4nccc(C(F)(F)F)n4)c3)cs2)CC1` [Example 229, 1-[4-(3-{[4-(trifluoromethyl)pyrimidin-2-yl]amino}phenyl)-1,3-thiazol-2-yl]piperidine-4-carboxylic acid]: the IC50 was in the range of 100 to 1000 nM.
For `Cc1cc(Nc2nccc(C(F)(F)F)n2)cc(-c2cnc(NCC(O)c3ccncc3)s2)c1` (centres unmarked) [Example 117], the IC50 was 100 to 1000 nM.
For the compound `CC(C)C(CO)Nc1ncc(-c2cccc(Nc3nccc(C(F)(F)F)n3)c2)s1` (centres unmarked) [Example 20], the IC50 is no more than 100 nM.
With `CSCCNc1ncc(-c2cccc(Nc3nccc(C(F)(F)F)n3)c2)s1` [Example 44], the IC50 was no more than 100 nM.
As to `OCC1CCN(c2ncc(-c3cccc(Nc4nccc(C(F)(F)F)n4)c3)s2)CC1` [Example 130], the IC50 is no more than 100 nM.
As for `OCCC1(c2ccc(Cl)cc2)CCN(c2ncc(-c3cccc(Nc4nccc(C(F)(F)F)n4)c3)s2)C1` (centres unmarked) [Example 160], the IC50 fell in the range of 1000 to 10000 nM.
As for `OCC1CCCCN1c1ncc(-c2cccc(Nc3nccc(C(F)(F)F)n3)c2)s1` (centres unmarked) [Example 132], the IC50 was no more than 100 nM.
With `O=C1CN(c2ncc(-c3cccc(Nc4nccc(C(F)(F)F)n4)c3)s2)CCN1` [Example 123], the IC50 was in the range of 1000 to 10000 nM.
Still for that read-out and setting: for `Cc1cc(Nc2nccc(C(F)(F)F)n2)cc(-c2cnc(N3CCn4cncc4C3)s2)c1` [Example 174] the value was no more than 100 nM; for `OCCCNc1ncc(-c2cccc(Nc3nccc(C(F)(F)F)n3)c2)s1` [Example 15], no more than 100 nM; for `CC(C)(C)OC(=O)NCC1CCN(c2ncc(-c3cccc(Nc4nccc(C(F)(F)F)n4)c3)s2)CC1` [Example 138], 1000 to 10000 nM.
Consider `Oc1ccc(CCNc2ncc(-c3cccc(Nc4nccc(C(F)(F)F)n4)c3)s2)cc1` [Example 46], for which the IC50 lay within 100 to 1000 nM.
Regarding `Cc1cc(Nc2nccc(C(F)(F)F)n2)cc(-c2cnc(NCc3cc(C)n(C)n3)s2)c1` [Example 88], the IC50 was no more than 100 nM.
As to `Cc1cc(Nc2nccc(C(F)(F)F)n2)cc(-c2cnc(NCCC3(O)CCN(C)CC3)s2)c1` [Example 116], the IC50 is no more than 100 nM.
Take `Cc1cc(Nc2ncc(F)c(OC3CCOC3)n2)cc(-c2cnc(N3CCCNC(=O)C3)s2)c1` (centres unmarked) [Example 216, 4-[5-(3-{[5-fluoro-4-(tetrahydrofuran-3-yloxy)pyrimidin-2-yl]amino}-5-methylphenyl)-1,3-thiazol-2-yl]-1,4-diazepan-2-one]: the IC50 was 100 to 1000 nM.
`Cc1cc(Nc2nccc(C(F)(F)F)n2)cc(-c2cnc(NCCc3c(C)n[nH]c3C)s2)c1` [Example 111]: the IC50 was no more than 100 nM.
The same measure, in the same setting: for `Cc1cc(Nc2nccc(C(F)(F)F)n2)cc(-c2cnc(NCc3cccnc3)s2)c1` [Example 85] the value was no more than 100 nM; for `CCCSc1ccnc(Nc2cc(C)cc(-c3cnc(N4CCCNC(=O)C4)s3)c2)n1` [Example 220], no more than 100 nM; for `Cn1cnc(CNc2ncc(-c3cccc(Nc4nccc(C(F)(F)F)n4)c3)s2)c1` [Example 81], no more than 100 nM.
For `CC1C(=O)NCCN1c1ncc(-c2cccc(Nc3nccc(C(F)(F)F)n3)c2)s1` (centres unmarked) [Example 124], the IC50 was no more than 100 nM.
Turning to `CN(Cc1ccccn1)c1ncc(-c2cccc(Nc3nccc(C(F)(F)F)n3)c2)s1` [Example 33], the IC50 is no more than 100 nM.
Regarding `COc1ccnc(Nc2cc(C)cc(-c3cnc(N4CCCNC(=O)C4)s3)c2)n1` [Example 205], the IC50 is no more than 100 nM.
`OC1(C(F)(F)F)CN(c2ncc(-c3cccc(Nc4nccc(C(F)(F)F)n4)c3)s2)C1` [Example 155]: the IC50 was in the range of 100 to 1000 nM.
As for `CC(CO)Nc1ncc(-c2cccc(Nc3nccc(C(F)(F)F)n3)c2)s1` (centres unmarked) [Example 32], the IC50 is no more than 100 nM.
With `Cc1cc(Nc2nccc(C(F)(F)F)n2)cc(-c2cnc(N3CCC4(CCNC4)CC3)s2)c1` [Example 1, N-{3-[2-(2,8-diazaspiro[4.5]dec-8-yl)-1,3-thiazol-5-yl]-5-methylphenyl}-4-(trifluoromethyl)-pyrimidin-2-amine], the IC50 was no more than 100 nM.
Consider `O=C(CO)Nc1ncc(-c2cccc(Nc3nccc(C(F)(F)F)n3)c2)s1` [Example 183, 2-hydroxy-N-[5-(3-{[4-(trifluoromethyl)pyrimidin-2-yl]amino}phenyl)-1,3-thiazol-2-yl]acetamide], for which the IC50 was no more than 100 nM.
Take `NC(=O)C1CCN(c2ncc(-c3cccc(Nc4nccc(C(F)(F)F)n4)c3)s2)CC1` [Example 191, 1-[5-(3-{[4-(trifluoromethyl)pyrimidin-2-yl]amino}phenyl)-1,3-thiazol-2-yl]piperidine-4-carboxamide]: the IC50 is no more than 100 nM.
Turning to `Cc1cc(Nc2nccc(C(F)(F)F)n2)cc(-c2cnc(NCc3cn4ccccc4n3)s2)c1` [Example 89], the IC50 fell in the range of 100 to 1000 nM.
As for `Cc1cc(Nc2nccc(C(F)(F)F)n2)cc(-c2cnc(N3CCC4CN(C)CC4C3)s2)c1` (centres unmarked) [Example 153], the IC50 is no more than 100 nM.
As for `OCCN(Cc1ccccn1)c1ncc(-c2cccc(Nc3nccc(C(F)(F)F)n3)c2)s1` [Example 8], the IC50 was no more than 100 nM.
On to `OC1CCCN(c2ncc(-c3cccc(Nc4nccc(C(F)(F)F)n4)c3)s2)C1` (centres unmarked) [Example 131], for which the IC50 was no more than 100 nM.
In the case of `CC(Nc1ncc(-c2cccc(Nc3nccc(C(F)(F)F)n3)c2)s1)c1ccccc1` (centres unmarked) [Example 55], the IC50 was in the range of 100 to 1000 nM.
On the same count and under the same terms, for `CCC(CO)Nc1ncc(-c2cccc(Nc3nccc(C(F)(F)F)n3)c2)s1` (centres unmarked) [Example 10] the value was no more than 100 nM.
As to `Cc1cc(Nc2nccc(C(F)(F)F)n2)cc(-c2cnc(NCCc3ccco3)s2)c1` [Example 107], the IC50 is no more than 100 nM.
In the case of `CC(C)(CO)Nc1ncc(-c2cccc(Nc3nccc(C(F)(F)F)n3)c2)s1` [Example 23], the IC50 is no more than 100 nM.
As to `Cc1cc(Nc2nccc(C3CCCCC3)n2)cc(-c2cnc(N3CCCNC(=O)C3)s2)c1` [Example 196, 4-(5-{3-[(4-cyclohexylpyrimidin-2-yl)amino]-5-methylphenyl}-1,3-thiazol-2-yl)-1,4-diazepan-2-one], the IC50 is no more than 100 nM.
Consider `Cc1cc(Nc2nccc(C(F)(F)F)n2)cc(-c2cnc(NCC(O)C(F)F)s2)c1` (centres unmarked) [Example 95], for which the IC50 is no more than 100 nM.
As to `Cc1cc(Nc2nccc(C3CC3)n2)cc(-c2cnc(N3CCCNC(=O)C3)s2)c1` [Example 198, 4-(5-{3-[(4-cyclopropylpyrimidin-2-yl)amino]-5-methyphenyl}-1,3-thiazol-2-yl)-1,4-diazepan-2-one], the IC50 is no more than 100 nM.

A further series deals with allergic rhinitis.
Experiment: not given
The following applies: phase II clinical trial; cited from earlier work.
Regarding `Oc1cccc(Nc2ncc(F)c(Nc3cccc(O)c3)n2)c1` [Example R112], the efficacy versus placebo result is “lack of efficacy versus placebo”.

The test system of another series is allergic rhinitis.
Experiment: not given
The note with it: dosed intranasally, phase I/II study; cited from earlier work.
Take `Oc1cccc(Nc2ncc(F)c(Nc3cccc(O)c3)n2)c1` [Example R112]: the clinical safety result is “safe across a range of indicators” and the “decrease in PGD2” value is recorded as “statistically significant decrease”.

The IC50 is the concentration that inhibits the measured activity by half.
